Measurements from ChEMBL document CHEMBL1201862, “PubChem BioAssay data set” (2004).
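Results reflect a 48-hour exposure of cells in 96-well plates to compound at five concentrations. The concentration for 50% growth inhibition is given as GI50.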 Calls of active or inactive are those of the source. Rule as the data show it: active = GI50 up to about 1.1 µM and inactive = higher.

Experiments:
Test in all cases: NCI anticancer screen, dose series, 48 h
[1] = test system: OVCAR-5
[2] = test system: CAKI-1
[3] = test system: UACC-257
[4] = test system: SK-OV-3
[5] = test system: EKVX
[6] = test system: SNB-19
[7] = test system: ACHN
[8] = test system: UO-31
[9] = test system: SNB-75
[10] = test system: COLO 205
[11] = test system: MDA-MB-435
[12] = test system: SR
[13] = test system: HT-29
[14] = test system: SW-620
[15] = test system: SK-MEL-2
[16] = test system: A498
[17] = test system: HOP-92
[18] = test system: 786-0

Row | Compound | GI50 [1] | GI50 [2] | GI50 [3] | GI50 [4] | GI50 [5] | GI50 [6] | GI50 [7] | GI50 [8] | GI50 [9] | GI50 [10] | GI50 [11] | GI50 [12] | GI50 [13] | GI50 [14] | GI50 [15] | GI50 [16] | GI50 [17] | GI50 [18]
1 | CCSc1nc(N)c2c(-c3ccc(OC)c(OC)c3)c3c(nc2n1)CCCC3 | > 100 µM (inactive) | > 100 µM (inactive) | > 100 µM (inactive) | > 100 µM (inactive) | > 100 µM (inactive) | > 100 µM (inactive) | > 100 µM (inactive) | > 100 µM (inactive) | 58.2 µM (inactive) | > 100 µM (inactive) | > 100 µM (inactive) | > 100 µM (inactive) | > 100 µM (inactive) | > 100 µM (inactive) |  |  |  | 
2 | COC(=O)C1=C(O)C(C(=O)OC)[C@]2(O)[C@@H](C(=O)OC)[C@H]1C[C@@H](c1ccccc1)[C@@H]2C(=O)OC (some centres undefined) | 16 µM (inactive) |  | 10.3 µM (inactive) | 17.4 µM (inactive) | 17.5 µM (inactive) | 24.3 µM (inactive) | 17.9 µM (inactive) | 12.2 µM (inactive) | 16.9 µM (inactive) |  | 7.71 µM (inactive) | 4.17 µM (inactive) | 16.3 µM (inactive) |  | 13.9 µM (inactive) | 17.2 µM (inactive) |  | 
3 | Cc1c(OCc2ccccc2)c(=O)ccn1CCc1c[nH]c2ccccc12 | 65.9 µM (inactive) |  | 73.8 µM (inactive) | > 100 µM (inactive) | 41.3 µM (inactive) | 32.7 µM (inactive) | > 100 µM (inactive) | 43.1 µM (inactive) |  | 16.4 µM (inactive) | 20 µM (inactive) | 27.6 µM (inactive) | 23.3 µM (inactive) | 36.1 µM (inactive) | 19 µM (inactive) |  | 14.4 µM (inactive) | 33.9 µM (inactive)
4 | COc1cc2c(cc1OC)-c1c(cnn1C1OC(COC(C)=O)C(OC(C)=O)C(OC(C)=O)C1OC(C)=O)CC2 (centres undefined) | > 100 µM (inactive) | > 100 µM (inactive) | > 100 µM (inactive) | > 100 µM (inactive) | > 100 µM (inactive) | > 100 µM (inactive) | > 100 µM (inactive) | 55.7 µM (inactive) | 48.9 µM (inactive) | > 100 µM (inactive) |  | 10.5 µM (inactive) | > 100 µM (inactive) | > 60.7 µM (inactive) | > 100 µM (inactive) | > 100 µM (inactive) | 48.1 µM (inactive) | > 100 µM (inactive)
5 | CN1CC=C(c2cccn2C)CC1 | > 100 µM (inactive) | > 100 µM (inactive) | > 100 µM (inactive) | > 100 µM (inactive) | > 100 µM (inactive) | > 100 µM (inactive) | > 100 µM (inactive) | > 100 µM (inactive) | > 100 µM (inactive) | > 100 µM (inactive) | > 100 µM (inactive) | > 100 µM (inactive) | > 100 µM (inactive) | > 100 µM (inactive) | > 100 µM (inactive) |  |  | > 100 µM (inactive)
6 | O=c1ccn(CC2(CO)CC(Cc3ccccc3)C2)c(=O)[nH]1 (centres undefined) | > 100 µM (inactive) | > 100 µM (inactive) | > 100 µM (inactive) | > 100 µM (inactive) | > 100 µM (inactive) |  | > 100 µM (inactive) | > 100 µM (inactive) | > 100 µM (inactive) | > 100 µM (inactive) | > 100 µM (inactive) | > 100 µM (inactive) | > 100 µM (inactive) | > 100 µM (inactive) | > 100 µM (inactive) | > 100 µM (inactive) |  | > 100 µM (inactive)
7 | O=Cc1cn(CCCCCCCCn2cc(C=O)c3ccccc32)c2ccccc12 | 8.79 µM (inactive) | > 10 µM (inactive) |  | > 10 µM (inactive) | > 10 µM (inactive) | > 10 µM (inactive) | > 10 µM (inactive) | > 10 µM (inactive) | 5.6 µM (inactive) | > 10 µM (inactive) | > 10 µM (inactive) | 9.57 µM (inactive) | > 10 µM (inactive) | > 10 µM (inactive) | > 10 µM (inactive) | 1.63 µM (inactive) |  | 
8 | COP(=O)(OC)C(Cc1cn(C(C)=O)c2ccccc12)C(=O)O (centres undefined) | > 100 µM (inactive) | > 100 µM (inactive) | > 100 µM (inactive) | > 100 µM (inactive) |  | > 100 µM (inactive) | > 100 µM (inactive) | > 100 µM (inactive) | > 100 µM (inactive) | > 100 µM (inactive) |  | > 100 µM (inactive) | > 100 µM (inactive) | > 100 µM (inactive) | > 100 µM (inactive) | > 100 µM (inactive) | 65.5 µM (inactive) | 
9 | COC(=O)c1ccc(NCC2=C(Br)C(=O)C=CC2=O)cc1Cl | 21.8 µM (inactive) | 26.9 µM (inactive) | 23.8 µM (inactive) | > 100 µM (inactive) | 14.1 µM (inactive) | > 100 µM (inactive) | 17 µM (inactive) | 16.4 µM (inactive) | 42.5 µM (inactive) | 17.8 µM (inactive) | 19.2 µM (inactive) |  | 17.7 µM (inactive) | 16 µM (inactive) | 20.2 µM (inactive) | > 100 µM (inactive) | 15.6 µM (inactive) | 13.3 µM (inactive)
10 | CCOC(=O)c1c(-c2ccccc2)c(C)cn1C | > 10 µM (inactive) |  | > 10 µM (inactive) | > 10 µM (inactive) | > 10 µM (inactive) | > 10 µM (inactive) | > 10 µM (inactive) | > 10 µM (inactive) | > 10 µM (inactive) |  | > 10 µM (inactive) | > 10 µM (inactive) | > 10 µM (inactive) |  | > 10 µM (inactive) |  | > 10 µM (inactive) | > 10 µM (inactive)
11 | CCOC(=O)/C(C(=O)Nc1ccc(Cl)cc1)=C(/N)N1CCCC1 | > 100 µM (inactive) | > 100 µM (inactive) | > 100 µM (inactive) | > 100 µM (inactive) | > 100 µM (inactive) | > 100 µM (inactive) | 45.6 µM (inactive) |  | > 100 µM (inactive) | > 100 µM (inactive) | > 100 µM (inactive) |  | > 100 µM (inactive) | > 100 µM (inactive) | 49.3 µM (inactive) | 64.4 µM (inactive) |  | > 100 µM (inactive)
12 | CN(CCCCCl)P(=O)(OCC1=CC(=O)c2ccccc2C1=O)OC[C@H]1O[C@@H](n2cc(F)c(=O)[nH]c2=O)C[C@@H]1O (some centres undefined) | 4.38 µM (inactive) | < 0.0115 µM (active) | 6.17 µM (inactive) |  | 3.18 µM (inactive) |  | < 0.01 µM (active) | < 0.01 µM (active) | < 0.0176 µM (active) |  | 0.684 µM (active) |  |  | 3.51 µM (inactive) | 8.09 µM (inactive) |  | < 0.0285 µM (active) | 
13 | CCCCCc1cccc(=O)o1 | > 100 µM (inactive) | > 100 µM (inactive) | > 100 µM (inactive) | > 100 µM (inactive) | > 100 µM (inactive) | > 100 µM (inactive) | > 100 µM (inactive) | > 100 µM (inactive) |  | > 100 µM (inactive) | > 100 µM (inactive) |  | > 100 µM (inactive) | > 100 µM (inactive) | > 100 µM (inactive) | 57.9 µM (inactive) | 44.2 µM (inactive) | > 100 µM (inactive)
